Test system: 883617-216-R-J1-PDC tumor spheroids, viability
Test: Anticancer human tumor 883617-216-R-J1-PDC patient-derived bladder carcinoma cell line growth inhibition [PI3K]
Details: spheroids with HUVEC and MSC; for IC50: curve of first compound; for viability, T/C: stronger effect = lower value
How it was run: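 Tumor cells grown as multi-cell spheroids with HUVEC endothelial cells and MSC fibroblast-like stroma were treated with targeted agents combined with inavolisib, alpelisib, duvelisib or copanlisib. Doses fell in half-log steps from near clinical Cmax, else from 10 microM. Viability was measured.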

[1] = second compound 0.00316 µM, first compound 0.0316 µM
[2] = second compound 0.00316 µM, first compound 0.1 µM
[3] = second compound 0.00316 µM, first compound 0.316 µM
[4] = second compound 0.00316 µM, first compound 1 µM
[5] = second compound 0.00316 µM, first compound 3.16 µM
[6] = second compound 0.00316 µM, first compound 10 µM
[7] = second compound 0.01 µM, first compound 0.0316 µM
[8] = second compound 0.01 µM, first compound 0.1 µM
[9] = second compound 0.01 µM, first compound 0.316 µM
[10] = second compound 0.01 µM, first compound 1 µM
[11] = second compound 0.01 µM, first compound 3.16 µM
[12] = second compound 0.01 µM, first compound 10 µM
[13] = second compound 0.0316 µM, first compound 0.0316 µM
[14] = second compound 0.0316 µM, first compound 0.1 µM
[15] = second compound 0.0316 µM, first compound 0.316 µM
[16] = second compound 0.0316 µM, first compound 1 µM
[17] = second compound 0.0316 µM, first compound 3.16 µM
[18] = second compound 0.0316 µM, first compound 10 µM
[19] = second compound 0.1 µM, first compound 0.0316 µM
[20] = second compound 0.1 µM, first compound 0.1 µM
[21] = second compound 0.1 µM, first compound 0.316 µM
[22] = second compound 0.1 µM, first compound 1 µM
[23] = second compound 0.1 µM, first compound 3.16 µM
[24] = second compound 0.1 µM, first compound 10 µM
[25] = second compound 0.316 µM, first compound 0.0316 µM
[26] = second compound 0.316 µM, first compound 0.1 µM
[27] = second compound 0.316 µM, first compound 0.316 µM
[28] = second compound 0.316 µM, first compound 1 µM
[29] = second compound 0.316 µM, first compound 3.16 µM
[30] = second compound 0.316 µM, first compound 10 µM
[31] = second compound 1 µM, first compound 0.0316 µM
[32] = second compound 1 µM, first compound 0.1 µM
[33] = second compound 1 µM, first compound 0.316 µM
[34] = second compound 1 µM, first compound 1 µM
[35] = second compound 1 µM, first compound 3.16 µM
[36] = second compound 1 µM, first compound 10 µM
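Note: spheroids exposed to agents for 7 days before the viability read.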

Work on `CC(C)NCC(C(=O)N1CCN(c2ncnc3c2C(C)CC3O)CC1)c1ccc(Cl)cc1` (stereo unspecified) + COc1c(OCCCN2CCOCC2)ccc2c3n(c(=NC(=O)c4cnc(N)nc4)nc12)CCN3 yielded an IC50 (second compound 0.00316 µM) of 475 nM, an IC50 (second compound 0.01 µM) of 167 nM and an IC50 (second compound 0.0316 µM) of less than 31.6 nM. It also gave an IC50 (second compound 0.1 µM) of less than 31.6 nM, an IC50 (second compound 0.316 µM) of less than 31.6 nM and an IC50 (second compound 1 µM) of less than 31.6 nM. The viability, T/C [1] was 89.7%, the viability, T/C [2] was 67.4% and the viability, T/C [3] was 59.5%. The viability, T/C [4] was 41.5%, the viability, T/C [5] was 18.4% and the viability, T/C [6] was 7.44%. For the same compound, the viability, T/C [7] was 63.5%, the viability, T/C [8] was 53.7% and the viability, T/C [9] was 45.7%. It also gave a viability, T/C [10] of 26.7%, a viability, T/C [11] of 17.2% and a viability, T/C [12] of 6.61%. The viability, T/C [13] was 44.2%, the viability, T/C [14] was 37.1% and the viability, T/C [15] was 26.4%. It also gave a viability, T/C [16] of 27.7%, a viability, T/C [17] of 8.87% and a viability, T/C [18] of 4.74%. For the same compound, the viability, T/C [19] was 22%, the viability, T/C [20] was 15% and the viability, T/C [21] was 12.2%. The viability, T/C [22] was 9.69%, the viability, T/C [23] was 5.3% and the viability, T/C [24] was 3.5%. For the same compound, the viability, T/C [25] was 5.34%, the viability, T/C [26] was 5.49% and the viability, T/C [27] was 4.1%. For the same compound, the viability, T/C [28] was 4.13%, the viability, T/C [29] was 3.12% and the viability, T/C [30] was 2.45%. The viability, T/C [31] was 2.86%, the viability, T/C [32] was 3.36% and the viability, T/C [33] was 3.4%. For the same compound, the viability, T/C [34] was 2.86%, the viability, T/C [35] was 3.11% and the viability, T/C [36] was 1.47%.
Work on `CCN1CCN(Cc2ccc(Nc3ncc(F)c(-c4cc(F)c5nc(C)n(C(C)C)c5c4)n3)nc2)CC1` + COc1c(OCCCN2CCOCC2)ccc2c3n(c(=NC(=O)c4cnc(N)nc4)nc12)CCN3 yielded an IC50 (second compound 0.00316 µM) of 234 nM, an IC50 (second compound 0.01 µM) of 35.6 nM and an IC50 (second compound 0.0316 µM) of less than 3.16 nM. For the same compound, the IC50 (second compound 0.1 µM) was less than 3.16 nM, the IC50 (second compound 0.316 µM) was less than 3.16 nM and the IC50 (second compound 1 µM) was less than 3.16 nM. For the same compound, the viability, T/C (second compound 0.00316 µM, first compound 0.00316 µM) was 91.3%, the viability, T/C (second compound 0.00316 µM, first compound 0.01 µM) was 83.5% and the viability, T/C [1] was 70.2%. For the same compound, the viability, T/C [2] was 57.2%, the viability, T/C [3] was 47.6% and the viability, T/C [4] was 42.3%. The viability, T/C (second compound 0.01 µM, first compound 0.00316 µM) was 65.5%, the viability, T/C (second compound 0.01 µM, first compound 0.01 µM) was 62.2% and the viability, T/C [7] was 51.4%. It also gave a viability, T/C [8] of 40.4%, a viability, T/C [9] of 40.7% and a viability, T/C [10] of 38.8%. For the same compound, the viability, T/C (second compound 0.0316 µM, first compound 0.00316 µM) was 36.3%, the viability, T/C (second compound 0.0316 µM, first compound 0.01 µM) was 31.1% and the viability, T/C [13] was 24.8%. It also gave a viability, T/C [14] of 25.9%, a viability, T/C [15] of 24% and a viability, T/C [16] of 21.5%. For the same compound, the viability, T/C (second compound 0.1 µM, first compound 0.00316 µM) was 14.6%, the viability, T/C (second compound 0.1 µM, first compound 0.01 µM) was 12.9% and the viability, T/C [19] was 18.3%. For the same compound, the viability, T/C [20] was 11.5%, the viability, T/C [21] was 12.6% and the viability, T/C [22] was 11.8%. For the same compound, the viability, T/C (second compound 0.316 µM, first compound 0.00316 µM) was 4.77%, the viability, T/C (second compound 0.316 µM, first compound 0.01 µM) was 4.9% and the viability, T/C [25] was 4.63%. It also gave a viability, T/C [26] of 4.67%, a viability, T/C [27] of 4.91% and a viability, T/C [28] of 6.41%. It also gave a viability, T/C (second compound 1 µM, first compound 0.00316 µM) of 2.94%, a viability, T/C (second compound 1 µM, first compound 0.01 µM) of 3% and a viability, T/C [31] of 3.07%. The viability, T/C [32] was 3.49%, the viability, T/C [33] was 4.44% and the viability, T/C [34] was 6.38%.
For `Cn1ncc(Cl)c1-c1cc(C(=O)NC(CN)Cc2cccc(F)c2)sc1Cl` (stereo unspecified) + COc1c(OCCCN2CCOCC2)ccc2c3n(c(=NC(=O)c4cnc(N)nc4)nc12)CCN3, the IC50 (second compound 0.00316 µM) was 473 nM, the IC50 (second compound 0.01 µM) was 241 nM and the IC50 (second compound 0.0316 µM) was less than 31.6 nM. The IC50 (second compound 0.1 µM) was less than 31.6 nM, the IC50 (second compound 0.316 µM) was less than 31.6 nM and the IC50 (second compound 1 µM) was less than 31.6 nM. It also gave a viability, T/C [1] of 83.1%, a viability, T/C [2] of 85.4% and a viability, T/C [3] of 59%. It also gave a viability, T/C [4] of 29.6%, a viability, T/C [5] of 13.9% and a viability, T/C [6] of 5.61%. The viability, T/C [7] was 66%, the viability, T/C [8] was 61.6% and the viability, T/C [9] was 45.4%. The viability, T/C [10] was 28.1%, the viability, T/C [11] was 10% and the viability, T/C [12] was 4.83%. For the same compound, the viability, T/C [13] was 33.8%, the viability, T/C [14] was 34.7% and the viability, T/C [15] was 33.2%. The viability, T/C [16] was 15.1%, the viability, T/C [17] was 8.09% and the viability, T/C [18] was 3.75%. It also gave a viability, T/C [19] of 17.8%, a viability, T/C [20] of 12.7% and a viability, T/C [21] of 10.8%. For the same compound, the viability, T/C [22] was 8.94%, the viability, T/C [23] was 5.15% and the viability, T/C [24] was 2.08%. The viability, T/C [25] was 6.38%, the viability, T/C [26] was 4.23% and the viability, T/C [27] was 5.38%. It also gave a viability, T/C [28] of 5.78%, a viability, T/C [29] of 2.33% and a viability, T/C [30] of 1.23%. It also gave a viability, T/C [31] of 3.15%, a viability, T/C [32] of 3.32% and a viability, T/C [33] of 2.66%. It also gave a viability, T/C [34] of 2.93%, a viability, T/C [35] of 2.39% and a viability, T/C [36] of 0.58%.

— PubChem BioAssay AID1963973 (Molecular Pharmacology Branch, DTP, NCI, 2024)
